# Tests used:
# [1] = target: T1, GnT-V (β1,6-N-acetylglucosaminyl transferase) (Homo sapiens, UniProt Q09328); experiment: GnT-V enzyme activity assay with fluorescence-labeled sugar acceptors, product separated by HPLC; type: biochemical
# T1 construct: 73/60 kDa
# T1 sequence (Q09328 31-741): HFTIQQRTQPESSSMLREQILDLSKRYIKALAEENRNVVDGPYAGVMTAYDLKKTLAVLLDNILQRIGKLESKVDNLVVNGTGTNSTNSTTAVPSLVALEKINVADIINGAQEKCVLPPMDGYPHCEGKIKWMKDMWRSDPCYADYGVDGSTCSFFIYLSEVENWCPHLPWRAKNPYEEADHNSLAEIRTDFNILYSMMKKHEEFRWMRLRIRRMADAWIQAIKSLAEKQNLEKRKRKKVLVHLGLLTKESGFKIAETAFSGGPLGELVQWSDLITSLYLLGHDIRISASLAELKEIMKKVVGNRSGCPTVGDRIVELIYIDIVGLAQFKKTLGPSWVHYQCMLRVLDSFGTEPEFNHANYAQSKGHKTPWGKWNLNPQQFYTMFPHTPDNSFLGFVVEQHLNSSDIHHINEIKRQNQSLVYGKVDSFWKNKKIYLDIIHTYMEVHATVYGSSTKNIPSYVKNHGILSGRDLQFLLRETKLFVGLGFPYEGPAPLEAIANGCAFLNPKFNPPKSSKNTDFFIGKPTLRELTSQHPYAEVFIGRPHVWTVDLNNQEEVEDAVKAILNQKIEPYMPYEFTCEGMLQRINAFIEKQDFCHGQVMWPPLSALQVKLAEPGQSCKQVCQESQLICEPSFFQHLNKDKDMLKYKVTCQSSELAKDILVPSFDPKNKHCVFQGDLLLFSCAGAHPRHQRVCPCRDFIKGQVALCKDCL
# From the text: An enzyme activity can be easily assayed by labeling an acceptor with a radioisotope or with fluorescent substance, adding the enzyme and separating the reaction product by high performance liquid chromatography (HPLC). More specifically, the method reported by Tanigichi et al. (Taniguchi, N., Nishikawa, A., Fujii, S., and Gu. J., Methods Enzymol. 179, 397-408 (1989); Nishikawa, H., Gu, J., Fujii, S., and Tanigichi, N., Biochem. Biophys. Acta, 1035, 313-318 (1990)) may be followed.
# Namely, the enzyme activity of GnT-V can be assayed using GnGn-2-aminopyridine (GnGn-bi-PA) as an acceptor, and UDP-GluNAc (Sigma) as a donor. Activity is shown by an amount of transferred N-acetylglucosamine/hour/mg protein. Note, an amount of protein can be measured according to a reported method (Redinbaugh, M. G., and Turley, R. B., Anal. Biochem. 153, 267-271 (1986)) using a BCA kit (Pierce Chemical Company, Rockford, Ill.) and using bovine serum albumin as a standard.
# Substrate specificity was determined using the following compound as sugar acceptors according to the above-mentioned enzyme activity measuring method. [drawing 1]
# GnGnF--, GnGF--, GGnF--, Gn(Gn)GnF--, Gn(Gn)Gn--, GG--, GnGn--, MM-- and GnM-- were isolated from the bovine IgG treated with anhydrous hydrazine and then labeled with a fluorescence label according to Hase et al. method (Hase, S., Ibuki, T., and Ikehara, T., J. Biochem. 95, 197-203 (1984). The purified GnT-V was diluted with PBS buffer to a final concentration of 0.1 mg protein/ml, and then reacted with each fluorescence-labeled sugar acceptor. A result is shown in Table 2.
# GnT-V expression product = target: T2, GnT-V expression product (Homo sapiens, UniProt Q09328); experiment: Enzyme activity of cloned GnT-V cDNA expressed in COS-1 cells; type: biochemical; details: supernatant of disrupted COS-1 cells
# T2 sequence (Q09328 1-741): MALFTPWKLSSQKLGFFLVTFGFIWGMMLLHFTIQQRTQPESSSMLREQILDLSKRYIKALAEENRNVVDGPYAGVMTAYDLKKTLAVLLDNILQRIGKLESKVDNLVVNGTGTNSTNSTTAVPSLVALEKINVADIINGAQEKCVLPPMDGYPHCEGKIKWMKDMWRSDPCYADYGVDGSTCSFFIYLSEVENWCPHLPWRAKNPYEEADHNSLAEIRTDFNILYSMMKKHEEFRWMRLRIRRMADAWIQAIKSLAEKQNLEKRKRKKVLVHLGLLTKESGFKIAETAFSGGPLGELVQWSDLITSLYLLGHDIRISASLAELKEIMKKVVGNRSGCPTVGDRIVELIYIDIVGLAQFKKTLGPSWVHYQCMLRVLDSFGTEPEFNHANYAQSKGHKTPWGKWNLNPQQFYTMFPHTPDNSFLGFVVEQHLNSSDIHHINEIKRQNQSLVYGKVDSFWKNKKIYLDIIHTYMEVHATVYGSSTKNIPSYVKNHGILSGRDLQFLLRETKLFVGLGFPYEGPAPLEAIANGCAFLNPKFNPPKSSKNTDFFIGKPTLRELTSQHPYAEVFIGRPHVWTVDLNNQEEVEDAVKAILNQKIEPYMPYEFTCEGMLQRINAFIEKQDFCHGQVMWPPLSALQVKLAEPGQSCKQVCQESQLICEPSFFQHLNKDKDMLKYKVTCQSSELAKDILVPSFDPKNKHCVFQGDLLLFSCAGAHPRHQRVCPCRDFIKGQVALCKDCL
# Protocol: The expression vector constructed in Example 8 was used to express the GnT-V cDNA fragment in animal cells and GnT-V activity of the expressed protein was tested.
# Expression vector containing GnT-V cDNA fragment was transfected to COS-1 cells, animal cells for expression, by electroporation. Namely, about 5×10^6 CO.S-1 cells previously prepared were suspended in HEPES buffer (50 mM Hepes, 137 mM NaCl, 5 mM KCl, 0.7 mM NaHPO3, 6 mM dextrose, pH 7.05), 60 μg of the above-mentioned plasmid was added thereon, and 800 μl of the suspension was subjected to electroporation in an electroporator (Bio-Rad) at 250V, […]. Next, all the suspensions of COS-1 cells electroporated with GnT-V gene was plated in a petri dish having the diameter of 6 cm, and cultured at 37° C. in 5% CO2 for 48 hours. The cultured ceils were collected with a rubber-coated police man bar, and suspended in 50 μl of PBS buffer, and the cells were disrupted with a sonicator. Next, the disruptant was centrifuged to collect a supernatant, and 15 μl of the supernatant was used to assay enzyme activity.
smiles,measurement,setting,value
"CC(=O)N[C@H]1[C@H](O[C@@H]([C@H](O)[C@H](CNc2ccccn2)NC(C)=O)[C@H](O)CO)O[C@H](CO)[C@@H](O[C@@H]2O[C@H](CO[C@H]3O[C@H](CO)[C@@H](O)[C@H](O)[C@@H]3O[C@@H]3O[C@H](CO)[C@@H](O)[C@H](O)[C@H]3NC(C)=O)[C@@H](O)[C@H](O[C@H]3O[C@H](CO)[C@@H](O)[C@H](O)[C@@H]3O[C@@H]3O[C@H](CO)[C@@H](O)[C@H](O)[C@H]3NC(C)=O)[C@@H]2O)[C@@H]1O [GnGn-bi-PA, GlcNAcβ1-2Manα1-3-(GlcNAcβ1-2Manα1-6)Manβ1-4GlcNAcβ1-4GlcNAc-2-aminopyridine]",Relative reaction rate,"[1]; acceptor 70 μM, purified GnT-V 0.1 mg protein/ml, GnGn-bi-PA = 100",100
same,reactivity relative to GnGn-bi-PA acceptor taken as 100%,[1]; substrate specificity,100%
same,"conversion of substrate by expression product GnT-V (HPLC elution profile, FIG. 10)",GnT-V expression product,converts a substrate GnGn-bi-PA to a product GnGnGn-tri'-PA

# Source: patent US5834284A, “N-acetylglucosaminyl transferase gene coding therefor and process for production thereof” (Suntory Limited, priority 1992, dated 1998)
